Experimental data as given in patent publication US12576083B2, “Combinational therapy of LSD1 inhibitors with P21 activators in the treatment of cancer” (Istituto Europeo di Oncologia S.r.l., priority 2017, dated 2026).

System: p21
Test: p21 expression in NB4 cells treated with HDAC inhibitors
Format: cell-based
Conditions: with p21-shRNA or scramble shRNA
Description: FIGS. 9A-9C. […] (FIG. 9B) NB4 cells were infected with SCR (control) or P21 shRNA, and knockdown was monitored by qPCR. Values are normalized against GAPDH. (FIG. 9C) Monitoring of p21 expression upon the indicated treatments. (SCR=Scramble shRNA, NI=Not Infected, HDACi=HDAC inhibitor=SAHA or TSA).
NB4 cells were treated with HDAC inhibitors, trichostatin A (TSA) and suberoylanilide hydroxamic acid (SAHA), in combination with p21-shRNA or scramble shRNA (SCR). NB4 cells with p21 knock-down without HDAC inhibitor treatment (p21KD-DMSO), NB4 cells without p21 knock-down and without HDAC inhibitor treatment (Scr-DMSO), untreated UF1 cells (UF1-DMSO) were included as control.

## CC(/C=C/C(=O)NO)=C\[C@@H](C)C(=O)c1ccc(N(C)C)cc1 [TSA, trichostatin A]
  p21 expression in NB4 cells: induced p21 expression
